Measured values from US11365192B2, “Pyridine compound substituted with azole” (TAISHO PHARMACEUTICAL CO., LTD., priority 2017, dated 2022).

What was measured:
[1] = target: human CYP4F2 (Homo sapiens (Human), UniProt P78329); test: Inhibition test against 20-HETE producing enzyme CYP4F2 (luciferine derivative, luminescence); type: biochemical
Method in brief: (§1)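 IC50 derived from luminescence after 60 min at room temperature with membrane fractions of E. coli expressing each human CYP (100 μg/mL protein). For CYP4A11, 60 μM luciferin derivative in 100 mM Tris-HCl pH 7.5 with NADPH-regenerating system; for CYP4F2, 2.5 μM substrate, 1 mM NADPH, 50 mM KPO4 pH 7.4.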

[2] = target: human CYP4A11 (Homo sapiens (Human), UniProt Q02928); test: Inhibition test against 20-HETE producing enzyme CYP4A11 (luciferine derivative, luminescence); type: biochemical
Method in brief: as §1

[3] = human CYP4F2, luciferine derivative, luminescence
[4] = human CYP4A11, luciferine derivative, luminescence
[5] = E. coli membrane fraction expressing human CYP4F2, 2.5 μM luciferine derivative, room temperature 60 minutes
[6] = E. coli membrane fraction expressing human CYP4A11, 60 μM luciferine derivative, room temperature 60 minutes

Chain of human CYP4A11 (Q02928 5-519): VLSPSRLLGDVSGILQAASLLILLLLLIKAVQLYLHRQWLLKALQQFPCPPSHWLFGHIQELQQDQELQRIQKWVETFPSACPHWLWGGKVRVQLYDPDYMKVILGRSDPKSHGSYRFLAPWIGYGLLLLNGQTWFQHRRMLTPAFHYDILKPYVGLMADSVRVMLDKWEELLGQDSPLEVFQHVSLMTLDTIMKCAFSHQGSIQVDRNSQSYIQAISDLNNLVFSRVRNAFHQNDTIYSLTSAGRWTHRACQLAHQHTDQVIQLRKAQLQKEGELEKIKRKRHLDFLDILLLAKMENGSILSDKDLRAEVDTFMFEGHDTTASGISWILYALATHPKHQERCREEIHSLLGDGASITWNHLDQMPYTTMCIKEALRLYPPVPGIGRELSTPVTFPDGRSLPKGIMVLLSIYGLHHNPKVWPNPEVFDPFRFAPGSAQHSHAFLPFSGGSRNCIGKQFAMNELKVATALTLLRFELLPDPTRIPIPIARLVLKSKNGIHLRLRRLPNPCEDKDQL
Chain of human CYP4F2 (P78329 5-520): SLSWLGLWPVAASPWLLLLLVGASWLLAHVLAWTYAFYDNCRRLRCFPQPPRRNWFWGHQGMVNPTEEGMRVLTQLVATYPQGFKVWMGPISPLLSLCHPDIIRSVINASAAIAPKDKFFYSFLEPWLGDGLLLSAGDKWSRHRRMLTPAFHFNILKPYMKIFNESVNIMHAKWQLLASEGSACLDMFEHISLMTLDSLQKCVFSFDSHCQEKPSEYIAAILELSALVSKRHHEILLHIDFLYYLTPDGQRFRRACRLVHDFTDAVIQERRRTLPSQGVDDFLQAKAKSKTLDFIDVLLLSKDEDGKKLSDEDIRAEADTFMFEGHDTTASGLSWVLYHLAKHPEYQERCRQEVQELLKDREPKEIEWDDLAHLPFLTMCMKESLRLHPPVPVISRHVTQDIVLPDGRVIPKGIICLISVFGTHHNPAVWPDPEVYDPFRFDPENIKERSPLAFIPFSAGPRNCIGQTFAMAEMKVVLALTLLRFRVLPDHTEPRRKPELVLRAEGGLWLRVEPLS

SMILES | IC50 [1, 3] [nM] | IC50 [2, 4] [nM] | IC50 [1, 5] [nM] | IC50 [2, 6] [nM]
O=C(O)C1(Cc2cccc(COc3ccc(-c4ccn[nH]4)nc3)c2F)COC1 [Example 71-26] | 9700 | 39 |  | 
O=C(O)CCCc1ccccc1COc1ccc(-c2ccn[nH]2)nc1 [Example 1-11] |  |  | 43000 | 24
O=C(O)C1CC(CCOc2ccc(-c3ccn[nH]3)nc2)C1 (stereo not shown) [Example 1-26] |  |  | 14000 | 43
CN([C@H]1CC[C@H](Oc2ccc(-c3ccn[nH]3)nc2)CC1)S(C)(=O)=O [Example 57-3] |  |  | 2000 | 2000
CC(C)(C(=O)O)n1cc(CCCCOc2ccc(-c3ccn[nH]3)nc2)cn1 [Example 8-13] |  |  | 8300 | 120
O=C(O)CC1CCCN(C(=O)c2cccc(COc3ccc(-c4ccn[nH]4)nc3)c2)C1 (stereo not shown) [Example 45-31] | 2500 | 370 |  | 
O=S(=O)(NCc1cccc(COc2ccc(-c3ccn[nH]3)nc2)c1)C(F)(F)F [Example 65-1, 1,1,1-Trifluoro-N-[[3-[[6-(1-H-pyrazol-5-yl)-3-pyridinyl]oxymethyl]phenyl]methyl]methanesulfonamide] |  |  | 63 | 8.1
O=C(O)C1CC1c1cc(F)cc(CCOc2ccc(-c3ccn[nH]3)nc2)c1 (stereo not shown) [Example 74-9] | 19000 | 47 |  | 
O=C(O)c1cncc(-c2cccc(COc3ccc(-c4ccn[nH]4)nc3)c2)c1 [Example 31-4] |  |  | 390 | 12
O=C(O)C1CCCN(c2cccc(COc3ccc(-c4ccn[nH]4)nc3)c2)C1 (stereo not shown) [Example 34-2] |  |  | 11000 | 50
O=C(O)c1cccc(CCCCOc2ccc(-c3ccn[nH]3)nc2)n1 [Example 29-5] |  |  | 690 | 29
O=C(O)C1CC1CCCOc1ccc(-c2ccn[nH]2)nc1 (stereo not shown) [Example 1-27] |  |  | 41000 | 38
O=C(O)C12CCC(CCCOc3ccc(-c4ccn[nH]4)nc3)(CC1)CC2 [Example 1-30] |  |  | 4100 | 34
O=C(O)C1CCC(COc2ccc(-c3ccn[nH]3)nc2)CC1 (stereo not shown) [Example 1-42] |  |  | 25000 | 52
O=C(O)[C@@H]1CCCN1C(=O)c1cccc(COc2ccc(-c3ccn[nH]3)nc2)c1 [Example 45-34] | 17000 | 220 |  | 
O=C(O)Cn1ccc(-c2cccc(COc3ccc(-c4ccn[nH]4)nc3)c2)cc1=O [Example 1-58] |  |  | 650 | 86
O=C(CCCC1(C(=O)O)CCCC1)N1CCC[C@@H](COc2ccc(-c3ccn[nH]3)nc2)C1 [Example 3-2] |  |  | 440 | 120
CC(C)(O)c1cc(COc2ccc(-c3ccn[nH]3)nc2)ccc1F [Example 27-5] |  |  | 900 | 79
O=C(c1cc(COc2ccc(-c3ccn[nH]3)nc2)ccn1)N1CCC(F)(C(=O)O)C1 (stereo not shown) [Example 45-38] | 300 | 310 |  | 
O=C(O)CCCc1ccc(CCCOc2ccc(-c3ccn[nH]3)nc2)cc1 [Example 30-5] |  |  | 74 | 420
Oc1cc(F)cc(COc2ccc(-c3ccn[nH]3)nc2)c1 [Example 12-3] |  |  | 25 | 290
O=C(CCc1cccc(COc2ccc(-c3ccn[nH]3)nc2)c1)NC[C@H]1CCCO1 [Example 43-13] | 21 | 48 |  | 
O=C(O)C1CC1c1cccc(CCOc2ccc(-c3ccn[nH]3)nc2)c1F (stereo not shown) [Example 74-3] | 60 | 88 |  | 
O=C(CCc1cccc(COc2ccc(-c3ccn[nH]3)nc2)c1)N1CC(O)C1 [Example 43-10] | 190 | 140 |  | 
CC(C)(COc1ccc(CCCOc2ccc(-c3ccn[nH]3)nc2)cn1)C(=O)O [Example 71-39] | 51 | 780 |  | 

SMILES | IC50 [1, 3] [nM] | IC50 [2, 4] [nM] | IC50 [1, 5] [nM] | IC50 [2, 6] [nM]
CC(=O)N1CCC(CCCCCCCOc2ccc(-c3ccn[nH]3)nc2)(C(=O)O)CC1 [Example 3-8] |  |  | 250 | 1200
O=S(=O)(NCCc1c[nH]c2ccccc12)c1ccc(COc2ccc(-c3ccn[nH]3)nc2)cc1 [Example 23-3] |  |  | 49 | 1700
CN(CCC(C)(C)C(=O)O)S(=O)(=O)c1cccc(COc2ccc(-c3ccn[nH]3)nc2)c1 [Example 21-5] |  |  | 430 | 29
CC(C)(Oc1cccc(CCOc2ccc(-c3ccn[nH]3)nc2)n1)C(=O)O [Example 71-36] | > 50000 | 260 |  | 
CC(C)(CCNC(=O)c1cc(COc2ccc(-c3ccn[nH]3)nc2)ccn1)C(=O)O [Example 45-15] | 180 | 1200 |  | 
O=C(O)c1cc(COc2ccc(-c3n[nH]cc3Cl)nc2)ccn1 [Example 1-41, 4-[[6-(4-Chloro-1H-pyrazol-3-yl)-3-pyridinyl]oxymethyl]-2-pyridinecarboxylic Acid] |  |  | 3700 | 97
COc1ccc(COc2ccc(-c3ccn[nH]3)nc2)cc1C(=O)O [Example 1-65, 2-Methoxy-5-[[6-(1H-pyrazol-5-yl)-3-pyridinyl]oxymethyl]benzoic Acid] |  |  | 24000 | 1200
O=C(O)/C=C/c1ccc(CCOc2ccc(-c3ccn[nH]3)nc2)cc1F [Example 70-5] | 27 | 43 |  | 
CC(C)(C(=O)O)c1cccc(S(=O)(=O)CCCCOc2ccc(-c3ccn[nH]3)nc2)c1 [Example 8-5] |  |  | 2300 | 560
CC(C)(CCCS(=O)(=O)c1cccc(COc2ccc(-c3ccn[nH]3)nc2)c1)C(=O)O [Example 37-1, 2,2-Dimethyl-5-[3-[[6-(1H-pyrazol-5-yl)-3-pyridinyl]oxymethyl]phenyl] sulfonylpentanoic Acid] |  |  | 32 | 46
NS(=O)(=O)c1cccc(C(=O)N2CCC[C@@H](COc3ccc(-c4ccn[nH]4)nc3)C2)c1 [Example 41-1, 3-[Oxo-[(3R)-3-[[6-(1H-pyrazol-5-yl)-3-pyridinyl]oxymethyl]-1-piperidinyl]methyl]benzenesulfonamide] |  |  | 590 | 250
CC(C)(C(=O)O)c1cccc(OCCOc2ccc(-c3ccn[nH]3)nc2)c1 [Example 24-3] |  |  | 3200 | 60
O=C(O)C1CC1c1ccc(COc2ccc(-c3ccn[nH]3)nc2)cc1 (stereo not shown) [Example 71-15] | 1200 | 84 |  | 
O=C(O)CCCCCCCCOc1ccc(-c2ccn[nH]2)nc1 [Example 1-51] |  |  | 200 | 54
O=C(O)c1ccc(COc2ccc(-c3ccn[nH]3)nc2)cc1 [Example 1-1, 4-[[6-(1H-Pyrazol-5-yl)-3-pyridinyl]oxymethyl]benzoic Acid] |  |  | 15000 | 37
O=C(O)C1COc2cc(COc3ccc(-c4ccn[nH]4)nc3)ccc2C1 (stereo not shown) [Example 71-23] | 550 | 50 |  | 
CNC(=O)C(C)c1cccc(COc2ccc(-c3ccn[nH]3)nc2)c1 (stereo not shown) [Example 42-23] | 55 | 160 |  | 
O=C(O)C1CC1c1ccc(F)c(CCOc2ccc(-c3ccn[nH]3)nc2)c1 (single isomer, unassigned) [Example 74-8] | 410 | 77 |  | 
O=C(O)Cc1cccc(COc2ccc(-c3ccn[nH]3)nc2)n1 [Example 8-16] |  |  | 680 | 750
O=C(O)C1(Cc2ccc(CCOc3ccc(-c4ccn[nH]4)nc3)cc2)COC1 [Example 74-12, 3-[[4-[2-[6-(1H-Pyrazol-5-yl)pyridin-3-yl]oxyethyl]phenyl]methyl]oxetane-3-carboxylic Acid] | 13000 | 510 |  | 
CC(C)(CNS(=O)(=O)c1cccc(COc2ccc(-c3ccn[nH]3)nc2)c1)C(=O)O [Example 75-3] | 490 | 36 |  | 
O=C(O)CCc1ccccc1CCOc1ccc(-c2ccn[nH]2)nc1 [Example 2-5, 3-[2-[2-[[6-(1H-Pyrazol-5-yl)-3-pyridinyl]oxy]ethyl]phenyl]propanoic Acid] |  |  | 8600 | 15
O=C(O)c1ccccc1CCCOc1ccc(-c2ccn[nH]2)nc1 [Example 1-10] |  |  | 27000 | 4200
O=C(O)C1CC1c1ccc(CCOc2ccc(-c3ccn[nH]3)nc2)cc1F (stereo not shown) [Example 70-8] | 120 | 130 |  | 
O=C(CCc1cccc(COc2ccc(-c3ccn[nH]3)nc2)c1)N1CCOCC1 [Example 42-15] | 140 | 400 |  | 
